According to ChEMBL document CHEMBL4842364 (J Med Chem, 2021):
Calls of active or inactive are those of the source. No cut-off for these calls is given here.

Tests used:
[1] = Octanol/buffer distribution coefficient, logD of the compound at pH 7.4; type: physicochemical
[2] = target: Voltage-gated inwardly rectifying potassium channel KCNH2 (Homo sapiens, UniProt Q12809); assay: Inhibition of human ERG
[3] = Efflux ratio of permeability from basolateral to apical side over apical to basolateral side in human Caco-2 cells; type: ADME, cell-based
[4] = system: NCI-H23; assay: Antiproliferative activity against human NCI-H23 cells assessed as reduction in cell viability after 4 days by CellTiter-Glo assay; settings: Homo sapiens, NCI-H23, 96 h
[5] = AUC in Beagle dog at 3 mg/kg, iv measured upto 24 hrs by LC-MS/MS analysis; type: ADME, organism-based, Canis lupus familiaris; parameters: route intravenous, dose 3 mg/kg, time <=24; settings: in vivo
[6] = target: Serine/threonine-protein kinase PLK1 (Homo sapiens, UniProt P53350); assay: Inhibition of PLK1 (unknown origin) at 1 uM relative to control
[7] = target: T1, Mitogen-activated protein kinase kinase kinase 19 (Homo sapiens) (UniProt Q56UN5); assay: Inhibition of YSK4 (unknown origin) at 1 uM relative to control
T1 sequence (whole entry): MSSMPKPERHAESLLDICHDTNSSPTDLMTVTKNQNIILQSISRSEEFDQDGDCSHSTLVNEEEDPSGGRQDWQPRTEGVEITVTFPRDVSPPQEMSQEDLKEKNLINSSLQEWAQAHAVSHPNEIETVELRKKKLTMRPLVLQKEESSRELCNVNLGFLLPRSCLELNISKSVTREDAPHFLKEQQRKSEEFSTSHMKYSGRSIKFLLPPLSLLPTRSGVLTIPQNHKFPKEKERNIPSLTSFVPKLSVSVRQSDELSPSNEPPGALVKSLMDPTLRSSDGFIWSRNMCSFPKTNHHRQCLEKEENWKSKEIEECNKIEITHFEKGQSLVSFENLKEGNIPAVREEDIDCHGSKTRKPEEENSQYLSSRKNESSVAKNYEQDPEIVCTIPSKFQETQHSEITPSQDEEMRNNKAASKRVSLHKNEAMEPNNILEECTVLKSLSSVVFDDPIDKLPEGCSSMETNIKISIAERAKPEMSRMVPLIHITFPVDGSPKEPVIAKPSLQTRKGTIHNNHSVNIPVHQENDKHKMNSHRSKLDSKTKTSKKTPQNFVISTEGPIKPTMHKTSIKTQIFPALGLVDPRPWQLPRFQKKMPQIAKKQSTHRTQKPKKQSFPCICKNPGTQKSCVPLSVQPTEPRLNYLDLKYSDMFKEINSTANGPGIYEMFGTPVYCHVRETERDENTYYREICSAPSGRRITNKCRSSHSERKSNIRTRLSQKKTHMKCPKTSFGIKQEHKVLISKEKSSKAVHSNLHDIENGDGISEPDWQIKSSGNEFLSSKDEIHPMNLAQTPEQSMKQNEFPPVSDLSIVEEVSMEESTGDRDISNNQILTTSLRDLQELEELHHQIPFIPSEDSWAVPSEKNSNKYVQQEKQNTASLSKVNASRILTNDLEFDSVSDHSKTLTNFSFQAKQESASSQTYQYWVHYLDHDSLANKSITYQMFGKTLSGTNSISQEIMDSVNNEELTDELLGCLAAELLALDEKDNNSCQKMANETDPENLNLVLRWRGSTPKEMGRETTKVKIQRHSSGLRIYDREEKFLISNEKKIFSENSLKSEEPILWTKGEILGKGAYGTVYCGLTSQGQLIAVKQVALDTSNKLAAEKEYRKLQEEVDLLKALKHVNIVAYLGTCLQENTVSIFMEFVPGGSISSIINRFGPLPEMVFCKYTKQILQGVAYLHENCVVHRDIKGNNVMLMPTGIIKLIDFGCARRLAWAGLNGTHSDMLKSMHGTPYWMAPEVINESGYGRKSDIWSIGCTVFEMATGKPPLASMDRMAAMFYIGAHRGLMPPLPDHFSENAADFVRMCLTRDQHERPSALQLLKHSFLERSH

[8] = AUC in Beagle dog at 10 mg/kg, po measured upto 24 hrs by LC-MS/MS analysis; type: ADME, organism-based, Canis lupus familiaris; parameters: route oral, dose 10 mg/kg, time <=24; settings: in vivo
[9] = Volume of distribution at steady state in Beagle dog at 3 mg/kg, iv measured upto 24 hrs by LC-MS/MS analysis; type: ADME, organism-based, Canis lupus familiaris; settings: in vivo, read-out: Vdss
[10] = Half life in Beagle dog at 10 mg/kg, po measured upto 24 hrs by LC-MS/MS analysis; type: ADME, organism-based, Canis lupus familiaris; settings: in vivo
[11] = system: Epidermal growth factor receptor (Homo sapiens), P00533 [UNDEFINED MUTATION]; assay: Inhibition of EGFR d746-750 mutant (unknown origin) at 1 uM relative to control
[12] = Oral bioavailability in Beagle dog at 10 mg/kg measured upto 24 hrs by LC-MS/MS analysis; type: ADME, organism-based, Canis lupus familiaris; settings: in vivo
[13] = Clearance in Beagle dog at 3 mg/kg, iv measured upto 24 hrs by LC-MS/MS analysis; type: ADME, organism-based, Canis lupus familiaris; settings: in vivo
[14] = target: T2, Mitogen-activated protein kinase kinase kinase 19 (Homo sapiens, UniProt Q56UN5); assay: Inhibition of YSK4 (unknown origin)
T2 sequence (Q56UN5 whole entry): T1 sequence (whole entry)

[15] = system: A-427; assay: Antitumor activity against human A-427 cells xenografted in SCID mouse assessed as reduction in tumor growth at 80 mg/kg, po administered once daily for 28 days and measured twice per weeks; type: functional, organism-based; settings: time 28.0 day
[16] = target: Serine/threonine-protein kinase PLK3 (Homo sapiens, UniProt Q9H4B4); assay: Inhibition of PLK3 (unknown origin) at 1 uM relative to control
Chain of Serine/threonine-protein kinase PLK3 (Q9H4B4 whole entry, looked up): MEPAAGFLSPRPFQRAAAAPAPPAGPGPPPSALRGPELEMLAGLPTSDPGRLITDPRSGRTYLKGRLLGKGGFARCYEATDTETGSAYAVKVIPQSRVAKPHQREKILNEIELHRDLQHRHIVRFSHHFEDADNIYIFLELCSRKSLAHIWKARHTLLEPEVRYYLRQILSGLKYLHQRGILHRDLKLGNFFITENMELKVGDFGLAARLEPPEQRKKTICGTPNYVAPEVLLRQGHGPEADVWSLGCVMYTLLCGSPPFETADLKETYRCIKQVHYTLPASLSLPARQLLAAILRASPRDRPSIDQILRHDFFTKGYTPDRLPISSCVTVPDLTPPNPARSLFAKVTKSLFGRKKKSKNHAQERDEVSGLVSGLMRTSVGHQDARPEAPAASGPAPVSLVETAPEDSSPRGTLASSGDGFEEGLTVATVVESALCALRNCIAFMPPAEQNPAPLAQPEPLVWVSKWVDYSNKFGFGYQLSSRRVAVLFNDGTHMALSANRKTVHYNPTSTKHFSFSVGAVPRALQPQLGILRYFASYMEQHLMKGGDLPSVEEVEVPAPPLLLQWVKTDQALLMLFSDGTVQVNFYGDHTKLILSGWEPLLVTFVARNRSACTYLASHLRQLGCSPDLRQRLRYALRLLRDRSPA

Chain of Serine/threonine-protein kinase PLK1 (P53350 whole entry): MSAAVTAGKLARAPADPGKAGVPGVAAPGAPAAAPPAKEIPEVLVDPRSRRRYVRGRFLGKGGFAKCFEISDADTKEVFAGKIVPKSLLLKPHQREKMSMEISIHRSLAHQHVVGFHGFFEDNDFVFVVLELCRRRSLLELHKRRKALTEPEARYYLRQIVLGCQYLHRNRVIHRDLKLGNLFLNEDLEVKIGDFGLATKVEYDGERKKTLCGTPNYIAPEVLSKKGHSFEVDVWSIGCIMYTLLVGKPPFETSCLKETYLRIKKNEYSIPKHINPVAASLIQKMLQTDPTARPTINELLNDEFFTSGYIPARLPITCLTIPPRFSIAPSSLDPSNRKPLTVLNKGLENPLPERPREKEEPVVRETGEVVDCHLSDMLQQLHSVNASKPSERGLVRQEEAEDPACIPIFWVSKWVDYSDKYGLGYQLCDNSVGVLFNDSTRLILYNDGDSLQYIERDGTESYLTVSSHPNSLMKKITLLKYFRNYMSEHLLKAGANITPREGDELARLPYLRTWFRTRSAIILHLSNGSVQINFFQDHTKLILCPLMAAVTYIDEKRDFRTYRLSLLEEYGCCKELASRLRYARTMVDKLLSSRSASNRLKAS
Chain of Voltage-gated inwardly rectifying potassium channel KCNH2 (Q12809 whole entry): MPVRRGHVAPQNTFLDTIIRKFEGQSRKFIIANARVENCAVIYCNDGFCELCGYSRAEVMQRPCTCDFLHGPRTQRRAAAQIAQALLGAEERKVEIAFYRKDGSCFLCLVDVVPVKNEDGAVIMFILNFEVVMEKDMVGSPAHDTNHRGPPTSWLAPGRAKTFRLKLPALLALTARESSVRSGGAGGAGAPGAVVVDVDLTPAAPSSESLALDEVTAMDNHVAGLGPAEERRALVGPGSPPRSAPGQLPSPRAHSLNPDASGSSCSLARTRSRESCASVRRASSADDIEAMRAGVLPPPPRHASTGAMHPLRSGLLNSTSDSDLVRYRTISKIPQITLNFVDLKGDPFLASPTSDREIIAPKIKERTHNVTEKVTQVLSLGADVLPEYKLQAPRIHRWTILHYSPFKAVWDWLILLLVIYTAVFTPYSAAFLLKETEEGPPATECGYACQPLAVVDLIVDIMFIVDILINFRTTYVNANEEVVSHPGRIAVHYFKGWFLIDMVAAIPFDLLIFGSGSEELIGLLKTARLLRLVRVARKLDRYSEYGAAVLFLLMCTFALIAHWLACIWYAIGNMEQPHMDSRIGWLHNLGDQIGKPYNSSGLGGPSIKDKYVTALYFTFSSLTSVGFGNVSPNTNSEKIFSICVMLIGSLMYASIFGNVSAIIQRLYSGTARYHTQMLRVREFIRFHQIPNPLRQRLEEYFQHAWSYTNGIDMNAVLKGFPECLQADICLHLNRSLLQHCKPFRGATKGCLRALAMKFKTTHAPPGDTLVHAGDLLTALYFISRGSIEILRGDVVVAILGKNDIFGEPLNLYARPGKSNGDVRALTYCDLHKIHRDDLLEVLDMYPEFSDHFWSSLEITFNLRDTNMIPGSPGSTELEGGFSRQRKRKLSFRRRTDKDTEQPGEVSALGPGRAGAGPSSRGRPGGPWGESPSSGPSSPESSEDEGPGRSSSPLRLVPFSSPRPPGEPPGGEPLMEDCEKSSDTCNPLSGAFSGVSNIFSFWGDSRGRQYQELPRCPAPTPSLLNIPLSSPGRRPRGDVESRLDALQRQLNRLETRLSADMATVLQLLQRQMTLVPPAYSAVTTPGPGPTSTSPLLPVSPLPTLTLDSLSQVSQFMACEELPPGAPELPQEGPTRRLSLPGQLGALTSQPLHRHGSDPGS
Chain of Epidermal growth factor receptor (Homo sapiens), P00533 [UNDEFINED MUTATION] (P00533 whole entry, looked up, change not shown): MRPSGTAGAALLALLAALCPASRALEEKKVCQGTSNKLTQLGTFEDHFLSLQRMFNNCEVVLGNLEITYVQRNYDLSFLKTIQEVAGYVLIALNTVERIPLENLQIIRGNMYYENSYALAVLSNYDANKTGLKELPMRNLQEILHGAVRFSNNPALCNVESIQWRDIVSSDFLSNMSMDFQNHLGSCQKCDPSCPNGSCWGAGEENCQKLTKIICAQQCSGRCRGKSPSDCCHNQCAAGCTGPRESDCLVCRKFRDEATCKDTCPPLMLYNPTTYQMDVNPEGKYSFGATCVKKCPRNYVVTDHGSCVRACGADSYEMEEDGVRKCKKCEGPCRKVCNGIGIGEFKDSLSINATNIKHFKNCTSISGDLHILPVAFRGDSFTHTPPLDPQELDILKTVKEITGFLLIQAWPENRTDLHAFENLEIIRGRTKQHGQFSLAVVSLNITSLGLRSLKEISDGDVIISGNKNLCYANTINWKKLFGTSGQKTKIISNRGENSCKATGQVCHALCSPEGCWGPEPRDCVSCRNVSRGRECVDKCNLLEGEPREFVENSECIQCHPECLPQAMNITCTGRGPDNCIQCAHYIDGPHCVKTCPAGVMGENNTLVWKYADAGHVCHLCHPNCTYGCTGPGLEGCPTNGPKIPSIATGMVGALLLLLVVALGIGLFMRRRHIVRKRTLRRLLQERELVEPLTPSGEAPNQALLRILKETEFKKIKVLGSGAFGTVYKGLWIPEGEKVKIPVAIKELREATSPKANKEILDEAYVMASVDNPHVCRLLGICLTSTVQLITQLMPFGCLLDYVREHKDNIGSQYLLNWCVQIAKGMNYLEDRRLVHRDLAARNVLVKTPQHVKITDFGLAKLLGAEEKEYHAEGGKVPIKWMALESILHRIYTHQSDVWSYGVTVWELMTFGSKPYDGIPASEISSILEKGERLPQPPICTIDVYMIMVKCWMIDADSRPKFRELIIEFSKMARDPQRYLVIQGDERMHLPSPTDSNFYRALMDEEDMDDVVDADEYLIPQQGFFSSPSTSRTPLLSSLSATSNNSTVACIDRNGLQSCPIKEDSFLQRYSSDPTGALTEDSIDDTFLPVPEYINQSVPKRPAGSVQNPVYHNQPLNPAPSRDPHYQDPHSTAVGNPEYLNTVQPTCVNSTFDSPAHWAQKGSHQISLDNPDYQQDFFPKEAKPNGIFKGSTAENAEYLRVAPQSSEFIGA

C=CCn1c(=O)c2cnc(Nc3ccc(N4CCN(C)CC4)cc3)nc2n1-c1ccc2c(n1)C(O)(CC)CC2 (racemic)
logD [1]: 2.4 | IC50 [2]: > 30000 nM | efflux ratio [3]: 7 | IC50 [4]: 103 nM | AUC at 24 h [5]: 2.1 µM·h | inhibition [6]: 75% | inhibition [7]: > 90% | AUC at 24 h [8]: 9.7 µM·h | Vd [9]: 4.4 L/kg | half-life [10]: 2.3 h | inhibition [11]: 75% | bioavailability [12]: 142% | clearance [13]: 46 mL/min/kg | IC50 [14]: 59 nM | Activity [15]: Active | inhibition [16]: > 90%
